*1 amine or outer side, *2 acyl side, *3 side chain or, on linkers, in order; H or OH if unused. Where a SMILES comes first, the peptide text is derived from it. [ ]: non-standard residue; d: D form. Glyψ(E-CHCH)Leu = CC(C)C[C@H](/C=C/CN[*:1])C(=O)[*:2]; X1 = CC(C)C[C@H](CCCN[*:1])C(=O)[*:2]; Arg(Me) = CNC(=N)NCCC[C@H](N)C(=O)O; Dap(CONH2) = NC(=O)NC[C@H](N)C(=O)O; Ala(cPr) = N[C@@H](CC1CC1)C(=O)O; Hyp = O=C(O)[C@@H]1C[C@@H](O)CN1; Aad = N[C@@H](CCCC(=O)O)C(=O)O; Cha = N[C@@H](CC1CCCCC1)C(=O)O; Aib = CC(C)(N)C(=O)O
System: metastin receptors
Assay: Measurement of agonist activity by assaying changes in intracellular calcium ion level (FLIPR, Fluo-4 NW)
Type: cell-based, human
Conditions: specific activity of the EC50 of a test compound based on the EC50 of Metastin (45-54), metastin receptor expression CHO cells
Protocol: 1) Preparation of Human Metastin and Rat Metastin Stable Expression Cell Lines
Human metastin and rat metastin stable expression cell lines were obtained by transfecting the expression plasmid for animal cells into CHO/dhfr^− cells using CellPhect Transfection Kit (manufactured by GE Healthcare). First, 240 μL of Buffer A (attached to CellPhect Transfection Kit) was added to 9.6 μg of plasmid DNA dissolved in 240 μL of distilled water followed by stirring. After the mixture was settled for 10 minutes, 480 μL of Buffer B (attached to CellPhect Transfection Kit) was added to the mixture, which was vigorously stirred to form liposomes containing the DNA. Then, 4×10^5 CHO/dhfr^− cells (obtained from ATCC) were inoculated on a 60 mm Petri dish. After culturing the cells in Ham's F-12 medium (manufactured by Nissui Seiyaku Co., Ltd.) supplemented with 10% fetal bovine serum (manufactured by BIO […], Inc.) at 37° C. for 2 days in 5% carbon dioxide gas, […] of the liposomes were dropwise added to the cells on the Petri dish. After culturing the cells in a CO2 incubator (5% CO2, 37° C.) for 6 hours, the cells were washed twice with serum-free Ham's F-12 medium and 3 mL of 15% glycerol was added to the cells on the Petri dish followed by treatment for 2 minutes. The cells were again washed twice with serum-free Ham's F-12 medium followed by incubation in Ham's F-12 medium supplemented with 10% fetal bovine serum in a CO2 incubator (5% CO2, 37° C.) for 15 hours. The cells were dispersed by trypsin treatment to recover from the Petri dish. The recovered cells were inoculated on a 6-well plate in 1.25×10^4 cells each/well and incubation was initiated in a CO2 incubator (5% CO2, 37° C.) in Dulbecco's modified Eagle medium (DMEM, manufactured by Nissui Seiyaku) containing 10% dialyzed fetal bovine serum (manufactured by JRH BIOSCIENCES, Inc.). The plasmid-transfected CHO transformants grew in the medium but the non-transfected cells gradually died, accordingly the medium was exchanged on Days 1 and 2 after the initiation of incubation to remove the dead cells. Approximately 20 colonies of the CHO transformants that kept growing on Days 8 to 10 after the incubation were isolated. From the cells in these colonies, cells showing high reactivity with the ligand peptide metastin (hereinafter merely referred to as h175 KB19 and h175 KB29 strains) were selected to provide for the following experiment.
Human metastin expression CHO cell line (h175 KB19 strain is described in a separate section) and rat metastin expression CHO cell line (h175 KB29 strain is described in a separate section) were seeded in a 96-well plate (type 3904, manufactured by Corning) at 3×10^4 cells/well, followed by incubation in a CO2 incubator (5% CO2, 37° C.) for 24 hours. For the medium, MEMα medium (nucleic acid-free, manufactured by Nikken Bio Medical Laboratory) supplemented with dialyzed 10% fetal bovine serum (manufactured by Thermo, MultiSer) was used.
3) Loading with Fluo-4 NW in Cells
As an assay buffer, 1× Hanks' balanced salt solution (HBSS, manufactured by GIBCO) supplemented with 0.1% BSA, 20 mM HEPES (pH 7.4, manufactured by GIBCO) and 1 mM Probenecid (manufactured by Molecular Probes) was prepared. The medium in the wells of the cell-seeded plate was removed and 100 μL each of the assay buffer (kept warm at 37° C.) was added to each well. After 10 mL of the assay buffer (the volume for assaying two plates) was charged in one Fluo-4NW dye mix (Component A, Fluo-4 NW calcium assay kit (starter pack), manufactured by Molecular Probes) bottle, the mixture was gently stirred to prepare the Fluo-4 NW loading solution. This loading solution was charged in each well by 50 μl each and reacted in a CO2 incubator (5% CO2, 37° C.) for 30 minutes for loading with Fluo-4 NW into the cells. Subsequently, the cells were settled at room temperature (25° C.) for 15 minutes and then used for assay.
4) Measurement of Agonist Activity […]

Row | Structure (SMILES) | Specific Activity
1 | CNC(=N)NCCC[C@H](NC(=O)[C@@H](CCCNC(=O)[C@H](Cc1ccccc1)NC(=O)[C@@H](NC(=O)[C@H](CC(N)=O)NC(=O)[C@@H]1C[C@@H](O)CN1C(=O)[C@@H](Cc1ccc(O)cc1)NC(C)=O)[C@@H](C)O)CC(C)C)C(=O)N[C@@H](Cc1c[nH]c2ccccc12)C(N)=O [Compound No. 893, des(1)-Ac-[D-Tyr2,Hyp3,Thr5,Gly7Ψ((E)CH2CH2)Leu8,Arg(Me)9,Trp10]MS10] (Ac-[dY][Hyp]NTF[X1][Arg(Me)]W-NH2) | 0.8
2 | CNC(=N)NCCC[C@H](NC(=O)[C@H](CC1CC1)NC(=O)CNC(=O)[C@H](CC1CCCCC1)NC(=O)[C@@H](NC(=O)[C@H](CC(N)=O)NC(=O)[C@@H]1C[C@@H](O)CN1C(=O)[C@@H](Cc1ccc(O)cc1)NC(C)=O)[C@@H](C)O)C(=O)N[C@@H](Cc1c[nH]c2ccccc12)C(N)=O [Compound No. 894, des(1)-Ac-[D-Tyr2,Hyp3,Thr5,Cha6,Ala(cPr)8,Arg(Me)9,Trp10]MS10] (Ac-[dY][Hyp]NT[Cha]G[Ala(cPr)][Arg(Me)]W-NH2) | 0.5
3 | CNC(=N)NCCC[C@H](NC(=O)[C@H](CC1CC1)NC(=O)CNC(=O)[C@H](CC1CCCCC1)NC(=O)[C@@H](NC(=O)[C@H](CC(N)=O)NC(=O)[C@H](CCC(=O)O)NC(=O)[C@@H](Cc1ccc(O)cc1)NC(C)=O)[C@@H](C)O)C(=O)N[C@@H](Cc1c[nH]c2ccccc12)C(N)=O [Compound No. 895, des(1)-Ac-[D-Tyr2,Glu3,Thr5,Cha6,Ala(cPr)8,Arg(Me)9,Trp10]MS10] (Ac-[dY]ENT[Cha]G[Ala(cPr)][Arg(Me)]W-NH2) | 0.4
4 | CNC(=N)NCCC[C@H](NC(=O)[C@@H](/C=C/CNC(=O)[C@H](CC1CCCCC1)NC(=O)[C@@H](NC(=O)[C@H](CC(N)=O)NC(=O)[C@@H]1C[C@@H](O)CN1C(=O)[C@@H](Cc1ccc(O)cc1)NC(C)=O)[C@@H](C)O)CC(C)C)C(=O)N[C@@H](Cc1c[nH]c2ccccc12)C(N)=O [Compound No. 902, des(1)-Ac-[D-Tyr2,Hyp3,Thr5,Cha6,Gly7Ψ((E)CH═CH)Leu8,Arg(Me)9,Trp10]MS10] (Ac-[dY][Hyp]NT[Cha][Glyψ(E-CHCH)Leu][Arg(Me)]W-NH2) | 0.6
5 | CNC(=N)NCCC[C@H](NC(=O)[C@@H](/C=C/CNC(=O)[C@H](CC1CCCCC1)NC(=O)[C@@H](NC(=O)[C@H](CNC(N)=O)NC(=O)[C@@H]1C[C@@H](O)CN1C(=O)[C@@H](Cc1ccc(O)cc1)NC(C)=O)[C@@H](C)O)CC(C)C)C(=O)N[C@@H](Cc1c[nH]c2ccccc12)C(N)=O [Compound No. 903, des(1)-Ac-[D-Tyr2,Hyp3,Alb4,Thr5,Cha6,Gly7Ψ((E)CH═CH)Leu8,Arg(Me)9,Trp10]MS10] (Ac-[dY][Hyp][Dap(CONH2)]T[Cha][Glyψ(E-CHCH)Leu][Arg(Me)]W-NH2) | 0.4
6 | CNC(=N)NCCC[C@H](NC(=O)[C@@H](/C=C/CNC(=O)[C@H](CC1CCCCC1)NC(=O)[C@@H](NC(=O)[C@H](CC(N)=O)NC(=O)[C@H](CCC(=O)O)NC(=O)[C@@H](Cc1ccc(O)cc1)NC(C)=O)[C@@H](C)O)CC(C)C)C(=O)N[C@@H](Cc1c[nH]c2ccccc12)C(N)=O [Compound No. 904, des(1)-Ac-[D-Tyr2,Glu3,Thr5,Cha6,Gly7Ψ((E)CH═CH)Leu8,Arg(Me)9,Trp10]MS10] (Ac-[dY]ENT[Cha][Glyψ(E-CHCH)Leu][Arg(Me)]W-NH2) | 0.5
7 | CNC(=N)NCCC[C@H](NC(=O)[C@@H](/C=C/CNC(=O)[C@H](CC1CCCCC1)NC(=O)[C@@H](NC(=O)[C@H](CNC(N)=O)NC(=O)[C@H](CCC(=O)O)NC(=O)[C@@H](Cc1ccc(O)cc1)NC(C)=O)[C@@H](C)O)CC(C)C)C(=O)N[C@@H](Cc1c[nH]c2ccccc12)C(N)=O [Compound No. 905, des(1)-Ac-[D-Tyr2,Glu3,Alb4,Thr5,Cha6,Gly7Ψ((E)CH═CH)Leu8,Arg(Me)9,Trp10]MS10] (Ac-[dY]E[Dap(CONH2)]T[Cha][Glyψ(E-CHCH)Leu][Arg(Me)]W-NH2) | 0.5
8 | CNC(=N)NCCC[C@H](NC(=O)[C@@H](/C=C/CNC(=O)[C@H](Cc1ccccc1)NC(=O)[C@@H](NC(=O)[C@H](CNC(N)=O)NC(=O)[C@@H]1C[C@@H](O)CN1C(=O)[C@@H](Cc1ccc(O)cc1)NC(C)=O)[C@@H](C)O)CC(C)C)C(=O)N[C@@H](Cc1c[nH]c2ccccc12)C(N)=O [Compound No. 906, des(1)-Ac-[D-Tyr2,Hyp3,Alb4,Gly7Ψ((E)CH═CH)Leu8,Arg(Me)9,Trp10]MS10] (Ac-[dY][Hyp][Dap(CONH2)]TF[Glyψ(E-CHCH)Leu][Arg(Me)]W-NH2) | 0.6
9 | CNC(=N)NCCC[C@H](NC(=O)[C@@H](/C=C/CNC(=O)[C@H](Cc1ccccc1)NC(=O)[C@@H](NC(=O)[C@H](CC(N)=O)NC(=O)[C@H](CCC(=O)O)NC(=O)[C@@H](Cc1ccc(O)cc1)NC(C)=O)[C@@H](C)O)CC(C)C)C(=O)N[C@@H](Cc1c[nH]c2ccccc12)C(N)=O [Compound No. 907, des(1)-Ac-[D-Tyr2,Glu3,Thr5,Gly7Ψ((E)CH═CH)Leu8,Arg(Me)9,Trp10]MS10] (Ac-[dY]ENTF[Glyψ(E-CHCH)Leu][Arg(Me)]W-NH2) | 0.6

The remaining lines, values ahead:

Row | Specific Activity | Structure (SMILES)
10 | 0.5 | CNC(=N)NCCC[C@H](NC(=O)[C@@H](/C=C/CNC(=O)[C@H](Cc1ccccc1)NC(=O)[C@@H](NC(=O)[C@H](CNC(N)=O)NC(=O)[C@H](CCC(=O)O)NC(=O)[C@@H](Cc1ccc(O)cc1)NC(C)=O)[C@@H](C)O)CC(C)C)C(=O)N[C@@H](Cc1c[nH]c2ccccc12)C(N)=O [Compound No. 908, des(1)-Ac-[D-Tyr2,Glu3,Alb4,Thr5,Gly7Ψ((E)CH═CH)Leu8,Arg(Me)9,Trp10]MS10] (Ac-[dY]E[Dap(CONH2)]TF[Glyψ(E-CHCH)Leu][Arg(Me)]W-NH2)
11 | 2.5 | CNC(=N)NCCC[C@H](NC(=O)[C@H](CC1CC1)NC(=O)CNC(=O)[C@H](CC1CCCCC1)NC(=O)[C@@H](NC(=O)[C@H](CC(N)=O)NC(=O)[C@H](CC(=O)O)NC(=O)[C@@H](Cc1ccc(O)cc1)NC(C)=O)[C@@H](C)O)C(=O)N[C@@H](Cc1c[nH]c2ccccc12)C(N)=O [Compound No. 909, des(1)-Ac-[D-Tyr2,Asp3,Thr5,Cha6,Ala(cPr)8,Arg(Me)9,Trp10]MS10] (Ac-[dY]DNT[Cha]G[Ala(cPr)][Arg(Me)]W-NH2)
12 | 1.1 | CNC(=N)NCCC[C@H](NC(=O)[C@H](CC1CC1)NC(=O)CNC(=O)[C@H](CC1CCCCC1)NC(=O)[C@@H](NC(=O)[C@H](CC(N)=O)NC(=O)[C@H](CCCC(=O)O)NC(=O)[C@@H](Cc1ccc(O)cc1)NC(C)=O)[C@@H](C)O)C(=O)N[C@@H](Cc1c[nH]c2ccccc12)C(N)=O [Compound No. 910, des(1)-Ac-[D-Tyr2,Aad3,Thr5,Cha6,Ala(cPr)8,Arg(Me)9,Trp10]MS10] (Ac-[dY][Aad]NT[Cha]G[Ala(cPr)][Arg(Me)]W-NH2)
13 | 0.7 | CNC(=N)NCCC[C@H](NC(=O)[C@H](CC1CC1)NC(=O)CNC(=O)[C@H](CC1CCCCC1)NC(=O)[C@@H](NC(=O)[C@H](CC(N)=O)NC(=O)[C@H](CCCCN)NC(=O)[C@@H](Cc1ccc(O)cc1)NC(C)=O)[C@@H](C)O)C(=O)N[C@@H](Cc1c[nH]c2ccccc12)C(N)=O [Compound No. 911, des(1)-Ac-[D-Tyr2,Lys3,Thr5,Cha6,Ala(cPr)8,Arg(Me)9,Trp10]MS10] (Ac-[dY]KNT[Cha]G[Ala(cPr)][Arg(Me)]W-NH2)
14 | 0.6 | CNC(=N)NCCC[C@H](NC(=O)[C@H](CC1CC1)NC(=O)CNC(=O)[C@H](CC1CCCCC1)NC(=O)[C@@H](NC(=O)[C@H](CC(N)=O)NC(=O)C(C)(C)NC(=O)[C@@H](Cc1ccc(O)cc1)NC(C)=O)[C@@H](C)O)C(=O)N[C@@H](Cc1c[nH]c2ccccc12)C(N)=O [Compound No. 912, des(1)-Ac-[D-Tyr2,Aib3,Thr5,Cha6,Ala(cPr)8,Arg(Me)9,Trp10]MS10] (Ac-[dY][Aib]NT[Cha]G[Ala(cPr)][Arg(Me)]W-NH2)
